The record followed here is ChEMBL document CHEMBL1221200, “Diarylquinolines target subunit c of mycobacterial ATP synthase” (Nat Chem Biol, 2007).

Test [1] relates to Mycolicibacterium smegmatis. Put plainly: Antimicrobial activity against Mycobacterium smegmatis ATCC 607 by alamar blue assay. The format is functional.
Test [2] deals with Mycobacterium tuberculosis. Put plainly: Antimicrobial activity against Mycobacterium tuberculosis by alamar blue assay. In kind it is functional.
Test [3] has as its target Putative uncharacterized protein atpE (Mycolicibacterium smegmatis, UniProt Q5TIX5). Put plainly: Inhibition of Mycobacterium smegmatis ATCC 607 ATP synthase subunit c-mediated ATP synthesis after 60 mins by luminometry.
For test [4], the system named is Mycobacterium tuberculosis. Put plainly: Antimicrobial activity against Mycobacterium tuberculosis H37Rv by 7H9 broth dilution method. In kind it is functional.
Test [5] relates to Mycobacterium tuberculosis. Put plainly: Antimicrobial activity against Mycobacterium tuberculosis H37Rv by […] dilution method. The format is functional.
For test [6], the system named is Mycolicibacterium smegmatis. Put plainly: Antimicrobial activity against wild type Mycobacterium smegmatis ATCC 607 by 7H9 agar dilution method. The format is functional.
The subject of test [7] is Mycolicibacterium smegmatis. Kind of test: Antimicrobial activity against Mycobacterium smegmatis isolate R09 expressing ATP synthase AtpE D32V mutant protein by 7H9 agar dilution method. In kind it is functional.
For test [8], the system named is Mycolicibacterium smegmatis. Kind of test: Ratio of MIC for Mycobacterium smegmatis isolate R09 expressing ATP synthase AtpE D32V mutant protein to MIC for wild type Mycobacterium smegmatis. The format is functional.
For test [9], the system named is Mycolicibacterium smegmatis. Kind of test: Antimicrobial activity against wild type Mycobacterium smegmatis ATCC 607 expressing vector pSD5 by 7H9 agar dilution method. The format is functional.
The test system of test [10] is Mycolicibacterium smegmatis. Put plainly: Antimicrobial activity against Mycobacterium smegmatis expressing ATP synthase AtpE D32V mutant protein by 7H9 agar dilution method. The format is functional.
For test [11], the system named is Mycolicibacterium smegmatis. Put plainly: Antimicrobial activity against Mycobacterium smegmatis ATCC 607 expressing ATP synthase AtpE subunit by 7H9 agar dilution method. The format is functional.
Test [12] has as its system Mycolicibacterium smegmatis. Kind of test: Ratio of MIC for Mycobacterium smegmatis expressing ATP synthase AtpE D32V mutant protein to MIC for wild type Mycobacterium smegmatis ATCC 607 expressing vector pSD5. In kind it is functional.
Test [13] relates to Mycolicibacterium smegmatis. Put plainly: Antimicrobial activity against wild type Mycobacterium smegmatis ATCC 607 by 7H10 agar dilution method. In kind it is functional.
The subject of test [14] is Mycolicibacterium smegmatis. Put plainly: Antimicrobial activity against Mycobacterium smegmatis isolate R09 expressing ATP synthase AtpE D32V mutant protein by 7H10 agar dilution method. In kind it is functional.
The subject of test [15] is Mycolicibacterium smegmatis. Put plainly: Antimicrobial activity against wild type Mycobacterium smegmatis ATCC 607 expressing vector pSD5 by 7H10 agar dilution method. The format is functional.
Test [16] has as its system Mycolicibacterium smegmatis. Kind of test: Antimicrobial activity against Mycobacterium smegmatis expressing ATP synthase AtpE D32V mutant protein by 7H10 agar dilution method. In kind it is functional.
Test [17] has as its system Mycolicibacterium smegmatis. Put plainly: Antimicrobial activity against wild-type Mycobacterium smegmatis ATCC 607 expressing ATP synthase AtpE subunit by 7H10 agar dilution method. In kind it is functional.
Test [18] has as its target ATP synthase subunit c (Bacillus sp., UniProt P00845). Put plainly: Binding affinity to Bacillus PS3 ATP synthase subunit c. On the set-up: species or system Bacillus sp. PS3.
Test [19] in a line: Binding affinity to Bacillus PS3 ATP synthase subunit c A63P mutant. Set-up: species or system Bacillus sp. PS3.
In test [20] the target is ATP synthase subunit c (Mycobacterium tuberculosis (strain CDC 1551 / Oshkosh)) (UniProt P9WPS0). Put plainly: Inhibition of Mycobacterium tuberculosis ATP synthase subunit c-mediated ATP synthesis after […] by luminometry.
Sequence of ATP synthase subunit c (Mycobacterium tuberculosis (strain CDC 1551 / Oshkosh)) (P9WPS0 whole entry): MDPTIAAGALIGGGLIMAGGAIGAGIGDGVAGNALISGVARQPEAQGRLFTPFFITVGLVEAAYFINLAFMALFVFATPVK
Test [21] deals with Mycobacterium tuberculosis. Kind of test: Antimicrobial activity against wild-type Mycobacterium tuberculosis expressing ATP synthase AtpE assessed as growth inhibition in early log-phase by 7H10 agar dilution method. In kind it is functional, organism-based.
Test [22] deals with Mycolicibacterium smegmatis. Kind of test: Binding affinity to Mycobacterium smegmatis ATCC 607 ATP synthase subunit alpha by mass spectroscopy.
Test [23] concerns Mycolicibacterium smegmatis. Put plainly: Binding affinity to Mycobacterium smegmatis ATCC 607 ATP synthase subunit beta by mass spectroscopy.
Test [24] deals with ATP synthase subunit alpha (Bacillus sp.) (UniProt P09219). Kind of test: Binding affinity to Bacillus PS3 ATP synthase subunit alpha by mass spectroscopy.
Sequence of ATP synthase subunit alpha (Bacillus sp.) (P09219 whole entry): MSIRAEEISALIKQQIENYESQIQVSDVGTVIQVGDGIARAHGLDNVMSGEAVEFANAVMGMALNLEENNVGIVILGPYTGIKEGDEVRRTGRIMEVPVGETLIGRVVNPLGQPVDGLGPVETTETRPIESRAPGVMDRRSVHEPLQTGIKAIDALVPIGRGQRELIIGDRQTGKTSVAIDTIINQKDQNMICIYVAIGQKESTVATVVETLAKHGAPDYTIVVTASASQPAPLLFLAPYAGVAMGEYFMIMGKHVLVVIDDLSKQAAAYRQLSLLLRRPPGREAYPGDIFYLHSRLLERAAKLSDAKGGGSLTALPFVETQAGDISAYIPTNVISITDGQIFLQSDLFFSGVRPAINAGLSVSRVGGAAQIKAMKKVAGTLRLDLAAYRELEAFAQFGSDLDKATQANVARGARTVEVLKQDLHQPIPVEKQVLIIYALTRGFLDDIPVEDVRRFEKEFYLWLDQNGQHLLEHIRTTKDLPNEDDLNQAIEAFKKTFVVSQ
Test [25] deals with ATP synthase subunit beta (Bacillus sp.) (UniProt P07677). Put plainly: Binding affinity to Bacillus PS3 ATP synthase subunit beta by mass spectroscopy.
Sequence of ATP synthase subunit beta (Bacillus sp.) (P07677 whole entry): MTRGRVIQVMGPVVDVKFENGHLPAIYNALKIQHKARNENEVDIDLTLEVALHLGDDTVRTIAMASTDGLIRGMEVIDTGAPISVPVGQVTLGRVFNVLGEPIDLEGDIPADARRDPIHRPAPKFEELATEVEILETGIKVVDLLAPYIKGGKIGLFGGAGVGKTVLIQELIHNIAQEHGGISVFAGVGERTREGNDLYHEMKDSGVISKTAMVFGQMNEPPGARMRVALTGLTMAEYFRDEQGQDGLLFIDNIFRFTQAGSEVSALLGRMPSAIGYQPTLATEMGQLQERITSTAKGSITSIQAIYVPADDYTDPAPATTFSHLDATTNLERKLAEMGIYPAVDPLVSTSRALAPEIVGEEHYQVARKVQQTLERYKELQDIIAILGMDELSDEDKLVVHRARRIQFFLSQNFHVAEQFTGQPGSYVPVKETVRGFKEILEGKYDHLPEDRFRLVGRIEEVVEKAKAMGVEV

In brackets after ≈: the same amount, converted by molar mass. Activity calls are given as the source filed them. The rule behind the calls is not given here.

Sequence of Putative uncharacterized protein atpE (Q5TIX5 whole entry): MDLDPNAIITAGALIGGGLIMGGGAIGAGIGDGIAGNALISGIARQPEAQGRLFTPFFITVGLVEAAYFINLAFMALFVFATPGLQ
Sequence of ATP synthase subunit c (P00845 whole entry): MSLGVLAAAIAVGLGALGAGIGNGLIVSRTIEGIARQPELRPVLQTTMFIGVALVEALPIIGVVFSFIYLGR

With `COc1nc2ccc(Br)cc2cc1[C@H](c1ccccc1)[C@@](O)(CCN(C)C)c1cccc2ccccc12` (racemic; 1d), the figures for the MIC90 in [1] and in test [2] were 0.08 µg/mL (≈ 0.144 µM) and 1.8 µg/mL (≈ 3.24 µM), respectively.

As for `COc1nc2ccc(Br)cc2cc1[C@@H](c1ccccc1)[C@@](O)(CCN(C)C)c1cccc2ccccc12` (single isomer, unassigned) [BEDAQUILINE], the MIC90 in test [1] came to 0.35 µg/mL (≈ 0.63 µM); in test [2], 8.8 µg/mL (≈ 15.8 µM). For the same molecule, in test [3], the IC50 is 25 nM.

Consider `COc1nc2ccc(Br)cc2cc1[C@@H](c1ccccc1)[C@@](O)(CCN(C)C)c1cccc2ccccc12` [BEDAQUILINE], for which the MIC90 worked out at 0.004 µg/mL (≈ 0.0072 µM) in [1] and 0.06 µg/mL (≈ 0.108 µM) in test [2]. Besides, the minimum inhibitory concentration (MIC) in [4] was found to be 0.03 µg/mL (≈ 0.054 µM); in [5] it was 0.05 µg/mL (≈ 0.09 µM); in [6] it was 0.003 µg/mL (≈ 0.0054 µM); in test [7], 0.6 µg/mL (≈ 1.08 µM); in test [9], 0.003 µg/mL (≈ 0.0054 µM); in test [10], 0.5 µg/mL (≈ 0.9 µM). For the same molecule, the MIC was determined as 0.003 µg/mL (≈ 0.0054 µM) in test [11]; 0.003 µg/mL (≈ 0.0054 µM) in [13]; 0.7 µg/mL (≈ 1.26 µM) in test [14]; 0.003 µg/mL (≈ 0.0054 µM) in [15]; 0.4 µg/mL (≈ 0.72 µM) in test [16]; 0.003 µg/mL (≈ 0.0054 µM) in test [17]. Besides, the Ratio in [8] and in [12] was more than 100 throughout. The molecule also came in with an IC50 in test [3] of 2.5 nM. Also, the equilibrium dissociation constant (Kd) is 500 nM in test [18] and 1500 nM in test [19].

With `CO[C@H]1/C=C/O[C@@]2(C)Oc3c(C)c(O)c4c(O)c(c(/C=N/N5CCN(C)CC5)c(O)c4c3C2=O)NC(=O)/C(C)=C\C=C\[C@H](C)[C@H](O)[C@@H](C)[C@@H](O)[C@@H](C)[C@H](OC(C)=O)[C@@H]1C` [RIFAMPIN], the MIC90 came to 8.2 µg/mL (≈ 9.96 µM) in test [1] (Mycolicibacterium smegmatis, ATCC 607, read-out: MIC90) and 0.13 µg/mL (≈ 0.158 µM) in test [2] (Mycobacterium tuberculosis, read-out: MIC90).

Regarding `COc1nc2ccc(Br)cc2cc1[C@H](c1ccccc1)[C@@](O)(CCN(C)C)c1cccc2ccccc12` (racemic; 1c), the MIC90 in [1] came to 7 µg/mL (≈ 12.6 µM); in test [2], 44 µg/mL (≈ 79.2 µM). Also, the 50% inhibitory concentration (IC50) in [3] turned out to be 750 nM.

As for `COc1nc2ccc(Br)cc2cc1[C@@H](c1ccccc1)[C@@](O)(CCN(C)C)c1cccc2ccccc12`, the inhibition result in [20] was “Dose-dependent effect”. Moreover, the result in [21], in [22], in test [23], in [24] and in [25] was Active.
